Data set [1] concerns PC-12. Kind of data set: Protection against SNP-induced cell damage in rat PC-12 cells at 10 uM pretreated with compound for 2 hrs followed by SNP addition and measured after 24 hrs by MTT assay. It counts as functional, cell-based. To be noted: time 26.0 hrs.
Data set [2] has as its target T1, Prostaglandin G/H synthase 1 (Ovis aries, UniProt P05979).
T1 sequence (P05979 whole entry): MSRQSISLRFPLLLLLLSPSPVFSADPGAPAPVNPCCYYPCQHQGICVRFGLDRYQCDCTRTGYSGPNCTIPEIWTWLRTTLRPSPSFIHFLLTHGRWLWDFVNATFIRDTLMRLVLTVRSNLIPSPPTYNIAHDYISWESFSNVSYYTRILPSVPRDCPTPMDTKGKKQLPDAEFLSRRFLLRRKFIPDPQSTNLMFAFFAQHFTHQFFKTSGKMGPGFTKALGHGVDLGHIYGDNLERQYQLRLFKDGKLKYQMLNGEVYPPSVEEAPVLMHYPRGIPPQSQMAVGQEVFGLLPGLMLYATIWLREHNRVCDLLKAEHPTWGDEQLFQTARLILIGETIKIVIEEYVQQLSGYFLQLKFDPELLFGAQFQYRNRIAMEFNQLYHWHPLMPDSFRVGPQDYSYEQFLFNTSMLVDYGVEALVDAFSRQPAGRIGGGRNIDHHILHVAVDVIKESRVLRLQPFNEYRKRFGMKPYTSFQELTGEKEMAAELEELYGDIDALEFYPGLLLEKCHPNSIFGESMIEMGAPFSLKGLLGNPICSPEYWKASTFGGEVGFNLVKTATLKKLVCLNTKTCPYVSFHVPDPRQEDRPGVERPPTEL
Kind of data set: Inhibition of ovine COX-1 using arachidonic acid as substrate preincubated with compound for 5 mins followed by substrate addition and measured after 2 mins by enzyme immunoassay.

Data set [3] relates to RAW264.7. Kind of data set: Cytotoxicity against mouse RAW264.7 cells assessed as reduction in cell viability at 5 uM incubated for 24 hrs by MTT assay. The format is toxicity, cell-based. To be noted: raw264.7, 24 h. In general terms: Tetrazolium assays rely on reduction of a dye to a coloured formazan, in cell work by metabolically active cells.
Data set [4] concerns RAW264.7. Kind of data set: Anti-inflammatory activity in mouse RAW264.7 cells assessed as inhibition of LPS-induced NO production preincubated with compound for 1 hrs followed by LPS stimulation and measured after 24 hrs. It counts as functional, cell-based. To be noted: time 25.0 hrs.
For data set [5], the system named is RAW264.7. The data set can be described thus: Anti-inflammatory activity in LPS-induced mouse RAW264.7 cells assessed as reduction in PGE2 level preincubated with compound for 1 hrs followed by LPS stimulation and measured after 24 hrs by ELISA. It counts as functional, cell-based. To be noted: time 25.0 hrs.
Data set [6] has as its system PC-12. The data set can be described thus: Neuroprotective activity against SNP-induced cell damage in rat PC-12 cells pretreated with compound for 2 hrs followed by SNP addition and measured after 24 hrs by MTT assay. The format is functional, cell-based. The note with it: dose 2.5-100 µM, time 26.0 hrs.
Data set [7] concerns PC-12. The data set can be described thus: Neuroprotective activity against SNP-induced cell damage in rat PC-12 cells at 2.5 to 100 uM pretreated with compound for 2 hrs followed by SNP addition and measured after 24 hrs by MTT assay. It counts as functional, cell-based. To be noted: dose 2.5-100 µM, time 26.0 hrs.
Data set [8] deals with Rattus norvegicus. The data set can be described thus: Neuroprotective activity against middle cerebral artery occlusion induced ischemia stroke Sprague-Dawley rat model assessed as cerebral infarction area at 10 mg/kg, ip measured after 24 hrs by TTC staining based imaging analysis (reference value: 20.08 +/- 5.70). It counts as functional.
Data set [9] deals with Rattus norvegicus. Kind of data set: Neuroprotective activity against middle cerebral artery occlusion induced ischemia stroke Sprague-Dawley rat model assessed as reduction in glycocalyx degradation by measuring decrease in serum syndecan-1 level at 20 mg/kg, ip measured after 24 hrs by ELISA. The format is functional, organism-based.

Calls of active or inactive are those of the source. The rule behind the calls is not given here.

Turning to `COc1ccc(-c2nc(-c3ccccc3O)n(-c3ccc(S(N)(=O)=O)cc3)n2)cc1`, the outcome in data set [1] was Active.

In the case of `Oc1ccccc1-c1nc(-c2ccccc2O)n(-c2ccccc2)n1`, in data set [1], the result was Active.

Usually IC50 stands for the concentration needed to halve the response being measured. In the case of `NS(=O)(=O)c1ccc(-n2nc(-c3ccccc3O)nc2-c2ccccc2O)cc1`, in data set [2], the IC50 stood at 39.2 µM. Moreover, the Activity result is “Non-Toxic” in data set [3] and “Dose-Dependent Effect” in data set [6]. Moreover, the outcome in [4], in [5] and in [1] was Active.

In the case of `COc1cccc(-c2nc(-c3ccccc3O)n(-c3ccc(S(N)(=O)=O)cc3)n2)c1O`, the 50% inhibitory concentration (IC50) in data set [2] is 20 µM. Moreover, in [1], the outcome was Active.

As to `NS(=O)(=O)c1ccc(-n2nc(-c3ccccc3)nc2-c2ccccc2O)cc1`, the half-maximal inhibitory concentration (IC50) in [2] was 32.1 µM. In addition, in [3], the Activity entry is “Non-Toxic”. The outcome in data set [4], in data set [5] and in data set [1] was Active.

As to `NS(=O)(=O)c1ccc(-n2nc(-c3ccc([N+](=O)[O-])cc3)nc2-c2ccccc2O)cc1`, in data set [1], the outcome was Active.

`Cc1ccc(-c2cc(C(F)(F)F)nn2-c2ccc(S(N)(=O)=O)cc2)cc1` [CELECOXIB]: the Activity entry in data set [3] was “Non-Toxic”. Moreover, the outcome in [4] and in [5] was Active. Further, the result in [7] was inactive.

Take `COc1ccc(-c2nc(-c3ccccc3O)n(-c3ccc(S(C)(=O)=O)cc3)n2)c(O)c1`: in data set [1], the result was Active.

For `Oc1cc(C(F)(F)F)ccc1-c1nc(-c2ccccc2O)n(-c2ccccc2)n1`, the outcome in [1] was Active.

With `NS(=O)(=O)c1ccc(-n2nc(-c3ccc(C(F)(F)F)cc3)nc2-c2ccccc2O)cc1`, the IC50 in [2] was 43.4 µM. Besides, in data set [3], the Activity result is given as “Non-Toxic”. The outcome in [4], in [5] and in data set [1] was Active.

Turning to `Cc1ccc(-c2nc(-c3ccccc3O)n(-c3ccc(S(N)(=O)=O)cc3)n2)c(O)c1`, the IC50 in data set [2] is 42.3 µM. In addition, the Activity entry in [3] was “Non-Toxic”; in data set [6], “Dose-Dependent Effect”. In addition, the result in data set [4], in [5] and in [1] was Active.

Turning to `NS(=O)(=O)c1ccc(-n2nc(-c3ccc(F)cc3O)nc2-c2ccc(F)cc2O)cc1`, the IC50 in data set [2] was 26.3 µM. The Activity result in [3] was “Non-Toxic”; in data set [6] it was “Dose-Dependent Effect”. In addition, the result in data set [4], in data set [5] and in [1] was Active.

On to `CC(=O)Oc1ccccc1-c1nc(-c2ccccc2OC(C)=O)n(-c2ccccc2)n1`, for which the result in data set [1] was Active.

`NS(=O)(=O)c1ccc(-n2nc(-c3ccc(F)cc3O)nc2-c2ccccc2O)cc1`: the outcome in [1] was Active.

On to `NS(=O)(=O)c1ccc(-n2nc(-c3ccc(F)cc3)nc2-c2ccccc2O)cc1`, for which the concentration for half-maximal inhibition (IC50) in data set [2] is 41.6 µM. Besides, in [3], the Activity entry is reported as “Non-Toxic”. In addition, the outcome in data set [4], in data set [5] and in data set [1] was Active.

For the compound `COc1ccc(-c2nc(-c3ccccc3OC(C)=O)n(-c3ccccc3)n2)c(OC(C)=O)c1`, the outcome in data set [1] was Active.

Regarding `COc1ccc(O)c(-c2nc(-c3ccccc3O)n(-c3ccc(S(N)(=O)=O)cc3)n2)c1`, the 50% inhibitory concentration (IC50) in [2] worked out at 12.8 µM. Also, the result in [1] was Active.

`COc1ccc(-c2nc(-c3ccccc3O)n(-c3ccccc3)n2)c(O)c1`: the result in [1] was Active.

Regarding `CC(=O)Oc1cc(C(F)(F)F)ccc1-c1nc(-c2ccccc2OC(C)=O)n(-c2ccccc2)n1`, the result in [1] was Active.

Turning to `NS(=O)(=O)c1ccc(-n2nc(-c3ccc([N+](=O)[O-])cc3O)nc2-c2ccccc2O)cc1`, in data set [1], the result was Active.

In the case of `CS(=O)(=O)c1ccc(-n2nc(-c3ccccc3O)nc2-c2ccccc2O)cc1`, the result in data set [1] was Active.

Consider `COc1ccc(-c2nc(-c3ccc(OC)cc3O)n(-c3ccc(S(N)(=O)=O)cc3)n2)c(O)c1`, for which the outcome in data set [1] was Active.

Regarding `CS(=O)(=O)c1ccc(-n2nc(-c3ccc(C(F)(F)F)cc3O)nc2-c2ccccc2O)cc1`, the IC50 in [2] was determined as 82.1 µM. The Activity entry in data set [3] was “Non-Toxic”; in data set [6] it was “Dose-Dependent Effect”. Also, the result in [4], in data set [5] and in data set [1] was Active.

On to `CC1=NN(c2ccccc2)C(=O)C1` [EDARAVONE], for which the Activity in [8] was found to be 15.41. The result in data set [9] was Active.

Consider `NS(=O)(=O)c1ccc(-n2nc(-c3ccc(C(F)(F)F)cc3O)nc2-c2ccc(C(F)(F)F)cc2O)cc1`, for which the outcome in data set [1] was Active.

On to `COc1ccc(-c2nc(-c3ccccc3O)n(-c3ccc(S(N)(=O)=O)cc3)n2)c(O)c1`, for which the IC50 in data set [2] came to 45.5 µM. The outcome in data set [1] was Active.

Consider `NS(=O)(=O)c1ccc(-n2nc(-c3ccc(Cl)cc3O)nc2-c2ccccc2O)cc1`, for which the IC50 in data set [2] came to 25.6 µM. In addition, the outcome in data set [1] was Active.

On to `NS(=O)(=O)c1ccc(-n2nc(-c3ccc(Cl)cc3O)nc2-c2ccc(Cl)cc2O)cc1`, for which the result in [1] was Active.

As for `Cc1ccc(-c2nc(-c3ccc(C)cc3O)n(-c3ccc(S(N)(=O)=O)cc3)n2)c(O)c1`, in data set [1], the outcome was Active.
